Read-outs that look alike come from different tables or passages of the source.
Assays:
[1] = biological target: T1, PvNMT (Plasmodium vivax, UniProt A5K1A2); test: NMT activity assay (CPM fluorescence detection of free CoA), PvNMT
[2] = biological target: T2, HsNMT Isoform 1 (Homo sapiens, UniProt P30419); test: NMT activity assay (CPM fluorescence detection of free CoA), HsNMT
T2 sequence (P30419 1-496): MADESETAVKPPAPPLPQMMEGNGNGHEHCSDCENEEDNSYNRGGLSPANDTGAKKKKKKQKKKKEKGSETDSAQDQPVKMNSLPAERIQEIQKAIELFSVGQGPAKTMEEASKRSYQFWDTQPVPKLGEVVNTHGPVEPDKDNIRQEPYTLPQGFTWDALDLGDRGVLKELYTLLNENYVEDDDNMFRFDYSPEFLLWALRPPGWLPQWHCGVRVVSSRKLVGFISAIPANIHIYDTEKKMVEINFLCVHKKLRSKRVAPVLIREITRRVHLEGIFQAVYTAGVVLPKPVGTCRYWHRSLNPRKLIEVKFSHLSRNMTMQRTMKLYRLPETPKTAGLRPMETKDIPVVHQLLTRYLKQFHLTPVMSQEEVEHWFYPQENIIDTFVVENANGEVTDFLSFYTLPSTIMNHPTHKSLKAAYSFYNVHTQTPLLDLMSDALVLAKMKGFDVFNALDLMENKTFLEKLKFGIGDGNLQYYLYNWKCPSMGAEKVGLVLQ

[3] = biological target: T1, PvNMT; conditions: cited from earlier work
[4] = tested on: HsNMT1/2; set-up: method as in PMID 29760414; conditions: cited from earlier work

T1 sequence (A5K1A2 entry or part of it): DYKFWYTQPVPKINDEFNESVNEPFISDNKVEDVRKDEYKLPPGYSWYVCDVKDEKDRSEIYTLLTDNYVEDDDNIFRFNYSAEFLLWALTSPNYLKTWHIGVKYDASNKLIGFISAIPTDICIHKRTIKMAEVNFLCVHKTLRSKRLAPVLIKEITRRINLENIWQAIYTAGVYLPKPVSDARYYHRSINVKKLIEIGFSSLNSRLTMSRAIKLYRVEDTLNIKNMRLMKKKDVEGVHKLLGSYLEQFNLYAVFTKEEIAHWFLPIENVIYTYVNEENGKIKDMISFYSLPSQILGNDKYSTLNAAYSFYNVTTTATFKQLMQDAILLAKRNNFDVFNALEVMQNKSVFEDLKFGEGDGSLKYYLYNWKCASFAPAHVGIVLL

Compound	IC50 [1] [nM]	IC50 [2] [nM]	further results
Cc1c(CCOc2ccccc2-c2ccnc(N3CCNCC3)c2)c(C(=O)Nc2cccnc2)nn1C [Compound 8a, 1,5-Dimethyl-4-(2-(2-(2-(piperazin-1-yl)pyridin-4-yl)phenoxy)ethyl)-N-(pyridin-3-yl)-1H-pyrazole-3-carboxamide]	506	2520	
Cc1c(CCOc2ccccc2-c2ccnc(N3CCNCC3)c2)c(C(=O)N2CCOCC2)nn1C [Compound 8b, (1,5-Dimethyl-4-(2-(2-(2-(piperazin-1-yl)pyridin-4-yl)phenoxy)ethyl)-1H-pyrazol-3-yl)(morpholino)methanone]	24	763	
Cc1c(CCOc2ccccc2-c2ccnc(N3CCNCC3)c2)c(C(=O)NCC(=O)O)nn1C [Compound 8c, (1,5-Dimethyl-4-(2-(2-(2-(piperazin-1-yl)pyridin-4-yl)phenoxy)ethyl)-1H-pyrazole-3-carbonyl)glycine]	147	116	
Cc1c(CCOc2ccccc2-c2ccnc(N3CCNCC3)c2)c(C(=O)NCCN)nn1C [Compound 8f, N-(2-Aminoethyl)-1,5-dimethyl-4-(2-(2-(2-(piperazin-1-yl)pyridin-4-yl)phenoxy)ethyl)-1H-pyrazole-3-carboxamide]	89	103	
CC(=O)CNC(=O)c1nn(C)c(C)c1CCOc1ccccc1-c1ccnc(N2CCNCC2)c1 [Compound 8g, 1,5-Dimethyl-N-(2-oxopropyl)-4-(2-(2-(2-(piperazin-1-yl)pyridin-4-yl)phenoxy)ethyl)-1H-pyrazole-3-carboxamide]	32	1590	SI (enzyme selectivity) ([1]; calculated as HsNMT IC50/PvNMT IC50): > 31
Cc1c(CCOc2ccccc2-c2ccnc(N3CCNCC3)c2)c(C(=O)NCCO)nn1C [Compound 8h, N-(2-Hydroxyethyl)-1,5-dimethyl-4-(2-(2-(2-(piperazin-1-yl)pyridin-4-yl)phenoxy)ethyl)-1H-pyrazole-3-carboxamide]	39	504	
COC(=O)CNC(=O)c1nn(C)c(C)c1CCOc1ccccc1-c1ccnc(N2CCNCC2)c1 [Compound 8i, Methyl (1,5-Dimethyl-4-(2-(2-(2-(piperazin-1-yl)pyridin-4-yl)phenoxy)ethyl)-1H-pyrazole-3-carbonyl)glycinate]	20	57	
Cc1c(CCOc2cccnc2-c2ccnc(N3CCNCC3)c2)c(C(=O)Nc2cccnc2)nn1C [Compound 9a, 1,5-Dimethyl-4-(2-((2′-(piperazin-1-yl)-[2,4′-bipyridin]-3-yl)oxy)ethyl)-N-(pyridin-3-yl)-1H-pyrazole-3-carboxamide]	1020		
Cc1c(CCOc2cccnc2-c2ccnc(N3CCNCC3)c2)c(C(=O)N2CCOCC2)nn1C [Compound 9b, (1,5-Dimethyl-4-(2-((2′-(piperazin-1-yl)-[2,4′-bipyridin]-3-yl)oxy)ethyl)-1H-pyrazol-3-yl)(morpholino)methanone]	46	1650	
Cc1c(CCOc2cccnc2-c2ccnc(N3CCNCC3)c2)c(C(=O)NCC(=O)O)nn1C [Compound 9c, (1,5-Dimethyl-4-(2-((2′-(piperazin-1-yl)-[2,4′-bipyridin]-3-yl)oxy)ethyl)-1H-pyrazole-3-carbonyl)glycine]	230	11100	
Cc1c(CCOc2cccnc2-c2ccnc(N3CCNCC3)c2)c(C(=O)NCC(N)=O)nn1C [Compound 9d, N-(2-Amino-2-oxoethyl)-1,5-dimethyl-4-(2-((2′-(piperazin-1-yl)-[2,4′-bipyridin]-3-yl)oxy)ethyl)-1H-pyrazole-3-carboxamide]	181	11000	
Cc1c(CCOc2ccc3ccccc3c2-c2ccnc(N3CCNCC3)c2)c(C(=O)Nc2cccnc2)nn1C [Compound 10a, 1,5-Dimethyl-4-(2-((1-(2-(piperazin-1-yl)pyridin-4-yl)naphthalen-2-yl)oxy)ethyl)-N-(pyridin-3-yl)-1H-pyrazole-3-carboxamide]	5070		
Cc1c(CCOc2ccc3ccccc3c2-c2ccnc(N3CCNCC3)c2)c(C(=O)N2CCOCC2)nn1C [Compound 10b, (1,5-Dimethyl-4-(2-((1-(2-(piperazin-1-yl)pyridin-4-yl)naphthalen-2-yl)oxy)ethyl)-1H-pyrazol-3-yl)(morpholino)methanone]	91	11400	
Cc1c(CCOc2ccc3ccccc3c2-c2ccnc(N3CCNCC3)c2)c(C(=O)NCC(=O)O)nn1C [Compound 10c, (1,5-Dimethyl-4-(2-((1-(2-(piperazin-1-yl)pyridin-4-yl)naphthalen-2-yl)oxy)ethyl)-1H-pyrazole-3-carbonyl)glycine]	1060		
Cc1c(CCOc2ccc3ccccc3c2-c2ccnc(N3CCNCC3)c2)c(C(=O)NCC(N)=O)nn1C [Compound 10d, N-(2-Amino-2-oxoethyl)-1,5-dimethyl-4-(2-((1-(2-(piperazin-1-yl)pyridin-4-yl)naphthalen-2-yl)oxy)ethyl)-1H-pyrazole-3-carboxamide]	1000		
Cc1nn(C)c(C)c1CCOc1cc(F)ccc1-c1ccc2c(c1)c(CN(C)C)nn2C [IMP-1002]			IC50 [3]: 3 nM
Cc1nn(C)c(C)c1CCOc1c(-c2ccc3c(c2)c(CN(C)C)nn3C)ccc(F)c1F [IMP-1088]			HsNMT1/2 IC50 [4]: picomolar

Source: PMC11089503, “Exploring Subsite Selectivity within Plasmodium vivaxN-Myristoyltransferase Using Pyrazole-Derived Inhibitors” (Journal of Medicinal Chemistry, 2024)
